ChEMBL document CHEMBL4270515, “New pyrazolopyridine analogs: Synthesis, antimicrobial, antiquorum-sensing and antitumor screening” (Eur J Med Chem, 2018)
Converted amounts (≈) assume the structure as drawn.

Experiments:
Candida albicans = experiment: Antimicrobial activity against Candida albicans after 48 hrs by two-fold serial dilution method; format: functional
Ehrlich [1] = experiment: Antitumor activity against mouse EAC cells implanted in Swiss albino mouse assessed as effect on viable tumor cell count at 0.5 mg/mouse administered for 9 days by trypan blue staining based method (reference value: 83.20 10^6/ml); format: functional
Mus musculus [2] = experiment: Toxicity in Swiss albino mouse implanted with mouse EAC cells assessed as effect on WBC count at 0.5 mg/mouse administered for 9 days (reference value: 23.96 10^3/mm3); format: organism-based; conditions: in vivo, 216 h
Pseudomonas aeruginosa = experiment: Antimicrobial activity against Pseudomonas aeruginosa PAO1 after 24 hrs by two-fold serial dilution method; format: functional; conditions: PAO1, 24 h
Ehrlich [3] = experiment: Antitumor activity against mouse EAC cells implanted in Swiss albino mouse assessed as increase in life span at 0.5 mg/mouse administered for 9 days relative to control; format: functional
Ehrlich [4] = experiment: Antitumor activity against mouse EAC cells implanted in Swiss albino mouse assessed as mean survival time at 0.5 mg/mouse administered for 9 days (reference value: 14.5 day); format: functional
WI-38 = experiment: Cytotoxicity against human W138 cells assessed as decrease in cell viability after 48 hrs by MTT assay; format: cell-based; conditions: WI-38, 48 h
HeLa = experiment: Cytotoxicity against human HeLa cells assessed as decrease in cell viability after 48 hrs by MTT assay; format: functional, cell-based
[5] = Displacement of methyl green from DNA (unknown origin) incubated in dark for 24 hrs
Staphylococcus aureus = experiment: Antimicrobial activity against Staphylococcus aureus ATCC 29213 after 24 hrs by two-fold serial dilution method; format: functional; conditions: ATCC 29213, 24 h
Mus musculus [6] = experiment: Toxicity in Swiss albino mouse implanted with mouse EAC cells assessed as effect on hemoglobin content at 0.5 mg/mouse administered for 9 days (reference value: 8.15 g/dl); format: organism-based; conditions: in vivo, 216 h
Aspergillus flavus = experiment: Antimicrobial activity against Aspergillus flavus 3375 after 48 hrs by two-fold serial dilution method; format: functional; conditions: Aspergillus flavus, 3375, 48 h
Escherichia coli = experiment: Antimicrobial activity against Escherichia coli ATCC 12435 after 24 hrs by two-fold serial dilution method; format: functional; conditions: ATCC 12435, 24 h
MCF7 = experiment: Cytotoxicity against human MCF7 cells assessed as decrease in cell viability after 48 hrs by MTT assay; format: functional, cell-based; conditions: MCF7, 48 h
Bacillus cereus = experiment: Antimicrobial activity against Bacillus cereus UW 85 after 24 hrs by two-fold serial dilution method; format: functional; conditions: UW 85, 24 h
Mus musculus [7] = experiment: Toxicity in Swiss albino mouse implanted with mouse EAC cells assessed as effect on RBC count at 0.5 mg/mouse administered for 9 days (reference value: 3.69 10^6/mm3); format: organism-based; conditions: in vivo, 216 h
Aspergillus fumigatus = experiment: Antimicrobial activity against Aspergillus fumigatus 293 after 48 hrs by two-fold serial dilution method; format: functional; conditions: Af293, 48 h
HepG2 = experiment: Cytotoxicity against human HepG2 cells assessed as decrease in cell viability after 48 hrs by MTT assay; format: functional, cell-based; conditions: HepG2, 48 h
Ehrlich [8] = experiment: Antitumor activity against mouse EAC cells implanted in Swiss albino mouse assessed as effect on tumor volume at 0.5 mg/mouse administered for 9 days (reference value: 9.85 mL); format: functional
WISH = experiment: Cytotoxicity against human WISH cells assessed as decrease in cell viability after 48 hrs by MTT assay; format: cell-based
[9] = system: Chromobacterium violaceum; experiment: Inhibition of N-acyl-homoserinlactone-related quorum sensing system in Chromobacterium violaceum ATCC 12472 assessed as diameter of violacein pigment inhibition after 48 hrs

Compound | MIC (Candida albicans) | Activity (Ehrlich [1]) | Activity (Mus musculus [2]) | MIC (Pseudomonas aeruginosa) | ILS (Ehrlich [3]) | MST (Ehrlich [4]) | IC50 (HeLa) | IC50 [5] | MIC (Staphylococcus aureus) | Activity (Mus musculus [6]) | MIC (Aspergillus flavus) | MIC (Escherichia coli) | IC50 (MCF7) | MIC (Bacillus cereus) | Activity (Mus musculus [7]) | MIC (Aspergillus fumigatus) | IC50 (HepG2) | Activity (Ehrlich [8]) | IC50 (WISH) | inhibition zone (IZ) [9] | also measured
Cc1n[nH]c2c1C(c1ccc(N(C)C)cc1)C(C(=O)NNC(N)=S)=C(N)N2 (stereo not given) | 1290 µM (≈ 500 µg/mL) | 30.94 ×10⁶ /ml | 8.52 ×10³ /mm3 | 647 µM (≈ 250 µg/mL) | 155.5% | 46 days | 6.26 µM | 36.7 µM | 647 µM (≈ 250 µg/mL) | 13.4 g/dL | 1290 µM (≈ 500 µg/mL) | 1290 µM (≈ 500 µg/mL) | 5.21 µM | 647 µM (≈ 250 µg/mL) | 5.59 ×10⁶ /mm3 | 1290 µM (≈ 500 µg/mL) | 6.32 µM | 2.25 mL | 49 µM | < 2 mm | IC50 (WI-38): 53.5 µM
CC1(C)S[C@@H]2[C@H](NC(=O)[C@H](N)c3ccccc3)C(=O)N2[C@H]1C(=O)O [AMPICILLIN] |  |  |  |  |  |  |  |  | 716 µM (≈ 250 µg/mL) |  |  | 44.7 µM (≈ 15.6 µg/mL) |  | 1430 µM (≈ 500 µg/mL) |  |  |  |  |  |  | 
Cc1n[nH]c2c1C(c1ccc(N(C)C)cc1)C(C(=O)O)=C(N)N2 (stereo not given) | 798 µM (≈ 250 µg/mL) |  |  | 199 µM (≈ 62.5 µg/mL) |  |  | 33.6 µM | 41.7 µM | 99.7 µM (≈ 31.3 µg/mL) |  | 399 µM (≈ 125 µg/mL) | 199 µM (≈ 62.5 µg/mL) | 22 µM | 99.7 µM (≈ 31.3 µg/mL) |  | 399 µM (≈ 125 µg/mL) | 39.7 µM |  |  | 11 mm | 
Oc1cc(O)c2c(c1)O[C@H](c1ccc(O)c(O)c1)[C@@H](O)C2 |  |  |  |  |  |  |  |  |  |  |  |  |  |  |  |  |  |  |  | 2 mm | 
OC(Cn1cncn1)(Cn1cncn1)c1ccc(F)cc1F [FLUCONAZOLE] | 6530 µM (≈ 2000 µg/mL) |  |  |  |  |  |  |  |  |  |  |  |  |  |  |  |  |  |  |  | 
Cc1n[nH]c2c1C(c1ccc(N(C)C)cc1)C(C(=O)N/N=C1/C(=O)Nc3ccccc31)=C(N)N2 (stereo not given) | 2190 µM (≈ 1000 µg/mL) |  |  | 548 µM (≈ 250 µg/mL) |  |  | 52.9 µM |  | 2190 µM (≈ 1000 µg/mL) |  | 2190 µM (≈ 1000 µg/mL) | 4380 µM (≈ 2000 µg/mL) | 59.1 µM | 2190 µM (≈ 1000 µg/mL) |  | 2190 µM (≈ 1000 µg/mL) | 57.9 µM |  |  | < 2 mm | 
Cc1n[nH]c2c1C(c1ccc(N(C)C)cc1)C(C(=O)NN)=C(N)N2 (stereo not given) | 1530 µM (≈ 500 µg/mL) |  |  | 764 µM (≈ 250 µg/mL) |  |  | 51.3 µM | 68.2 µM | 764 µM (≈ 250 µg/mL) |  | 1530 µM (≈ 500 µg/mL) | 1530 µM (≈ 500 µg/mL) | 42.6 µM | 764 µM (≈ 250 µg/mL) |  | 1530 µM (≈ 500 µg/mL) | 66.4 µM |  |  | 5 mm | 
Cc1n[nH]c2c1C(c1ccc(N(C)C)cc1)C(C(N)=O)=C(N)N2 (stereo not given) | 6400 µM (≈ 2000 µg/mL) | 21.46 ×10⁶ /ml | 8.2 ×10³ /mm3 | 3200 µM (≈ 1000 µg/mL) | 238.9% | 61 days | 5.77 µM | 28 µM |  | 14 g/dL | 6400 µM (≈ 2000 µg/mL) |  | 4.55 µM |  | 5.94 ×10⁶ /mm3 | 3200 µM (≈ 1000 µg/mL) | 5.28 µM | 1.35 mL | 76.4 µM | < 2 mm | IC50 (WI-38): 68.5 µM
Cc1n[nH]c2c1C(c1ccc(N(C)C)cc1)C(C(=O)n1ncc(C#N)c1N)=C(N)N2 (stereo not given) | 4960 µM (≈ 2000 µg/mL) |  |  | 620 µM (≈ 250 µg/mL) |  |  | 60.2 µM |  |  |  | 2480 µM (≈ 1000 µg/mL) |  | 62.7 µM |  |  | 2480 µM (≈ 1000 µg/mL) | 66.3 µM |  |  | < 2 mm | 
Cc1n[nH]c2c1C(c1ccc(N(C)C)cc1)C(C(=O)N/N=C/c1ccc(Cl)cc1)=C(N)N2 (stereo not given) | 1110 µM (≈ 500 µg/mL) |  |  | 556 µM (≈ 250 µg/mL) |  |  | 31.7 µM | 67.8 µM | 556 µM (≈ 250 µg/mL) |  | 2220 µM (≈ 1000 µg/mL) | 556 µM (≈ 250 µg/mL) | 25.2 µM | 556 µM (≈ 250 µg/mL) |  | 2220 µM (≈ 1000 µg/mL) | 39.5 µM |  |  | < 2 mm | 
Cc1n[nH]c2c1C(c1ccc(N(C)C)cc1)C=C(N)N2 (stereo not given) | 3710 µM (≈ 1000 µg/mL) | 51.17 ×10⁶ /ml | 12.69 ×10³ /mm3 | 3710 µM (≈ 1000 µg/mL) | 72.2% | 31 days | 27.4 µM | 56.4 µM | 3710 µM (≈ 1000 µg/mL) | 10.95 g/dL | 3710 µM (≈ 1000 µg/mL) | 7430 µM (≈ 2000 µg/mL) | 11.2 µM | 3710 µM (≈ 1000 µg/mL) | 4.53 ×10⁶ /mm3 | 3710 µM (≈ 1000 µg/mL) | 20.6 µM | 4.8 mL | 21.6 µM | < 2 mm | IC50 (WI-38): 18.1 µM
Cc1n[nH]c2c1C(c1ccc(N(C)C)cc1)C(C(=O)NNc1cc([N+](=O)[O-])ccc1[N+](=O)[O-])=C(N)N2 (stereo not given) | 1010 µM (≈ 500 µg/mL) | 34.73 ×10⁶ /ml | 10.32 ×10³ /mm3 | 507 µM (≈ 250 µg/mL) | 133.3% | 42 days | 8.52 µM | 34 µM | 507 µM (≈ 250 µg/mL) | 13.1 g/dL | 1010 µM (≈ 500 µg/mL) | 1010 µM (≈ 500 µg/mL) | 13 µM | 253 µM (≈ 125 µg/mL) | 5.24 ×10⁶ /mm3 | 1010 µM (≈ 500 µg/mL) | 8.68 µM | 2.8 mL | 51.2 µM | 2.5 mm | IC50 (WI-38): 55.4 µM
COc1cccc2c1C(=O)c1c(O)c3c(c(O)c1C2=O)C[C@@](O)(C(=O)CO)C[C@@H]3O[C@H]1C[C@H](N)[C@H](O)[C@H](C)O1 [DOXORUBICIN] |  | 16.36 ×10⁶ /ml | 8.96 ×10³ /mm3 |  | 244.4% | 62 days |  | 31.3 µM |  | 12.75 g/dL |  |  |  |  | 5.32 ×10⁶ /mm3 |  |  | 1 mL | 8.14 µM |  | 
